What was measured:
[1] = tested on: quinone reductase 1 (QR1); experiment: QR1 induction assay; assay type: cell-based; conditions: for fold induction at 50 µM: read-out: QR1 IR (induction ratio), induction ratio at a concentration of 50 μM
aromatase = molecular target: T1, aromatase (Homo sapiens, UniProt P11511); experiment: Aromatase inhibition assay; assay type: biochemical
T1 sequence (P11511 1-503): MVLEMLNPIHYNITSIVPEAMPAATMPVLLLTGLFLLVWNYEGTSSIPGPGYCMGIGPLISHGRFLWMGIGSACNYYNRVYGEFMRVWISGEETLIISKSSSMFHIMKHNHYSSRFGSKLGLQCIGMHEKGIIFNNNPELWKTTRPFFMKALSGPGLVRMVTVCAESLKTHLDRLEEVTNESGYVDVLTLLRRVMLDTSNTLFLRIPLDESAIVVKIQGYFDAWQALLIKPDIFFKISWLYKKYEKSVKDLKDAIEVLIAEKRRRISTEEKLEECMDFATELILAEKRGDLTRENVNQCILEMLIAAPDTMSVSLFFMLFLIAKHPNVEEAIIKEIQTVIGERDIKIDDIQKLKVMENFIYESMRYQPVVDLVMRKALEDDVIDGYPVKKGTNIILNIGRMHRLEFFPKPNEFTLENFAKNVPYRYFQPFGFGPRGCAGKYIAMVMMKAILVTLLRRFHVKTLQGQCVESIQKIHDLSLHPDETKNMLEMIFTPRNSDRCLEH

Anti-aromatase activity (in words) (aromatase)	SMILES	QR1 induction activity (in words) [1]	other results
	O=c1cc(-c2ccc(Br)cc2)oc2ccccc12 [4′-bromoflavone, reference compound]		EC (2-fold activity) ([1]; read-out: QR1 CD (concentration that double the activity)): 0.01 µM
only slight activity	c1ccc(-c2cc3ccccc3[nH]2)cc1 [Compound 1, 2-phenylindole]	very good QR1 induction activity	
did not show significant activity	c1ccc(C2Cc3ccccc3N2)cc1 (stereo not shown) [Compound 1f, 2-phenylindoline]	weak activity	
	N#Cc1c(-c2ccccc2)[nH]c2ccccc12 [Compound 2d, 3-cyano-2-phenylindole]		fold induction at 50 µM [1]: 0.55 ± 0.64; IC50 (aromatase): 1610 ± 200 nM; inhibition at 50 µM (aromatase; read-out: Aromatase % inhibition): 88 ± 1.07%
	COc1cc(OC)cc(-c2cc3ccccc3[nH]2)c1 [Compound 7]		Fold increase in QR1 induction activity over 1 ([1]; relative to 1): 2 fold
	Clc1ccc(-c2cc3ccccc3[nH]2)cc1Cl [Compound 8]	inactive	
	Clc1ccccc1-c1cc2ccccc2[nH]1 [Compound 9]		fold induction at 50 µM [1]: < 1.5
	Fc1cc(F)cc(-c2cc3ccccc3[nH]2)c1 [Compound 15]	inactive	
	CCCCCc1ccc(-c2cc3ccccc3[nH]2)cc1 [Compound 17]	inactive	
	Nc1ccc(-c2cc3ccccc3[nH]2)cc1 [Compound 18]	inactive	
	CN(C)c1ccc(-c2cc3ccccc3[nH]2)cc1 [Compound 20]	inactive	
	c1cncc(-c2cc3ccccc3[nH]2)c1 [Compound 21]	inactive	
did not show encouraging activity	c1ccc2[nH]c(-c3ccsc3)cc2c1 [Compound 22]	inactive	
did not show encouraging activity	COc1ccc2ccc(-c3cc4ccccc4[nH]3)cc2c1 [Compound 23]	inactive	
	Cn1c(-c2ccccc2)cc2cc([N+](=O)[O-])ccc21 [Compound 24a]		Fold increase in aromatase activity over free NH derivative 24 (aromatase; relative to 24): 2 fold
	Cc1ccccc1-c1cc2cc([N+](=O)[O-])ccc2[nH]1 [Compound 25]		fold induction at 50 µM [1]: < 1.5
totally destroyed aromatase activity	O=[N+]([O-])c1ccc2[nH]c(-c3ccc(Cl)c(Cl)c3)cc2c1 [Compound 31]		
not active	Cn1c(-c2ccc(Cl)c(Cl)c2)cc2cc([N+](=O)[O-])ccc21 [Compound 31a]		

SMILES	Anti-aromatase activity (in words) (aromatase)	QR1 induction activity (in words) [1]	other results
c1ccc(-c2nc3ccccc3[nH]2)cc1 [Compound 34, 2-phenylbenzimidazole, reference compound]	not active		
